Source: patent publication US9029389B2 (Institut Pasteur Korea, priority 2011, dated 2015)

The compounds below were run against T1, Human 5-lipoxygenase (Homo sapiens, UniProt P09917) (assay: Activity of compounds against 5-LO enzyme (LTB4 measurement and/or fluorescence method)). Conditions: 5-LO, single concentration of 10 uM in duplicate.
T1 construct: purchased Cayman 60402; host or cells: insect cells
T1 sequence (P09917 1-674): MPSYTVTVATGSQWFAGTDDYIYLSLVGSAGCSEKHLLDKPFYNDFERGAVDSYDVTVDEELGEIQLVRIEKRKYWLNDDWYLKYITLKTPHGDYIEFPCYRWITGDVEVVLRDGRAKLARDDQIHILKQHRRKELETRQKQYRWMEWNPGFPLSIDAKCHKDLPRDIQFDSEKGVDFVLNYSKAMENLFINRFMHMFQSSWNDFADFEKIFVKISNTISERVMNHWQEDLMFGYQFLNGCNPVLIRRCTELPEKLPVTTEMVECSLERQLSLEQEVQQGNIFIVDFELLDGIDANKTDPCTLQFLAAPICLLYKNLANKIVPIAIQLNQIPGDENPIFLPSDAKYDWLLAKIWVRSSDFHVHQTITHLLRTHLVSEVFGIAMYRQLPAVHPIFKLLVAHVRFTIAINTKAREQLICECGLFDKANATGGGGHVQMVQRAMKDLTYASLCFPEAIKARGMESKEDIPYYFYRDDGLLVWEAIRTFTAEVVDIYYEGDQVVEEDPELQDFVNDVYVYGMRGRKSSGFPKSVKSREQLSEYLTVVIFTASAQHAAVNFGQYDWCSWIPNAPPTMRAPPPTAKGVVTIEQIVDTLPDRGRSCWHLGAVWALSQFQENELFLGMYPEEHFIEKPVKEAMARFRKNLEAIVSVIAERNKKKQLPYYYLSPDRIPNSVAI
Format: biochemical
Description: The activity of compounds against 5-LO were determined by measuring LTB4 (leukotriene B4) levels and/or by a fluorescence method. Both approaches are outlined in more detail below;
Human 5-lipoxygenase (Cayman, Cat#60402) produced in insect cells was pre-incubated with compound for 15 min at RT in incubation buffer (50 mM Tris-Cl, pH 7.4, 2 mM CaCl2, 0.1 mM ATP, 1% DMSO). The enzymatic reaction was started by adding arachidonic acid to a final concentration of 3 uM. After 5 min of incubation at 37° C., the reaction was stopped by heatinactivation at 80° C. for 5 min. LTB4 levels were quantified by using LTB4 EIA kit (Cayman, Cat#520111) as instructed and/or LTB4 levelswere measured with LC/MS/MS using Quattro Premier™ XE tandem quadrupole mass spectrometer equipped with Acquity UPLC system (Waters, Milford, Mass.). The method was slightly modified as reported previously (Zweifel et al., 2008, Willey et al., 2008, Chappell et al, 2011). Briefly, chromatographic separation was carried out with Acquity UPLC BEH Shield RP18 Column (2.1 mm×50 mm, 1.7 μm particle size, Waters, Milford, Mass.). Sample injection volume was 10 μl, the column temperature was 35° C., the mobile phase A consisted of water with 0.1% formic acid and the mobile phase B consisted of acetonitrile with 0.1% formic acid. Flow rate was 0.4 mL/min and the gradient condition was as follows.
Relative quantification of LTB4 and LTB4-d4 (Internal Standard) was done using multi reaction monitoring (MRM) of the transitions of m/z 335→195 for LTB4, 339→197 for LTB4-d4 in electrospray ionization (ESI) negative mode. Desolvation temperature was 400° C., source temperature was 130° C. Capillary voltage, cone voltage, and collision voltage were 3.5 kV, 30V, and 20 eV, respectively. Nitrogen was used for desolvation (750 L/h) and cone (50 L/h) gas. Argon was used for collision gas (0.22 ml/min). The dwell time was 10 ms.
Besides the two methods quantifying LTB4 level, a fluorescence assay measuring 5-HpETE was introduced for high-throughput screening in a 384 well microplate format (Pufahl et al., 2007). For nonspecific ester cleavage of the acetate groups in H2DCFDA, the insect cell lysate expressing human 5-LO (Cayman Cat#60402) was incubated with H2DCFDA (50 mM Tris-Cl, pH 7.5, 2 mM CaCl2, 20 uM H2DCFDA, 500 mU 5-LO per reaction) for 5 minutes. Compound and enzyme mixture were pre-incubated for 5 minutes, and the enzymatic reaction was initiated by addition of ATP and arachidonic acid to a final concentration of 100 uM and 3 uM, respectively. After 5 minutes of incubation, the fluorescence was measured using Spectramax M5 (Molecular Device, Ex/Em=485 nm/530 nm). All steps were carried out at room temperature.
A total of 378 compounds were initially tested at a single concentration of 10 uM in duplicate with the results summarized in Table 1. From these 378 compounds, 53 compounds plus an additional 25 were selected for confirmation of activity by 6 or 11 point dose response in duplicate with the corresponding IC50 values outlined in Table 2.

| Structure (SMILES) | inhibition at 10 µM |
| --- | --- |
| CCc1nc2ccc(Cl)cn2c1C(=O)NCc1ccc(N2CCCCC2)cc1 [compound 74, 6-Chloro-2-ethyl-N-(4-(piperidin-1-yl)benzyl)imidazo[1,2-a]pyridine-3-carboxamide] | < 40% |
| CCc1nc2ccc(Cl)cn2c1C(=O)NCc1ccc(-c2ccccc2C)cc1 [compound 75, 6-Chloro-2-ethyl-N-((2′-methylbiphenyl-4-yl)methyl)imidazo[1,2-a]pyridine-3-carboxamide] | 40 to 69% |
| CCc1nc2ccc(Cl)cn2c1C(=O)NCc1ccc(-c2cccc(C)c2)cc1 [compound 76, 6-Chloro-2-ethyl-N-((3′-methylbiphenyl-4-yl)methyl)imidazo[1,2-a]pyridine-3-carboxamide] | 40 to 69% |
| CCc1nc2ccc(Cl)cn2c1C(=O)NCc1ccc(-c2ccc(C)cc2)cc1 [compound 77, 6-Chloro-2-ethyl-N-((4′-methylbiphenyl-4-yl)methyl)imidazo[1,2-a]pyridine-3-carboxamide] | < 40% |
| CCc1nc2ccc(Cl)cn2c1C(=O)NCc1ccc(Cl)cc1 [compound 78, 6-Chloro-N-(4-chlorobenzyl)-2-ethylimidazo[1,2-a]pyridine-3-carboxamide] | < 40% |
| CCc1nc2ccc(Cl)cn2c1C(=O)NCc1ccc2ccccc2c1 [compound 79, 6-Chloro-2-ethyl-N-(naphthalen-2-ylmethyl)imidazo[1,2-a]pyridine-3-carboxamide] | < 40% |
| O=C(NCc1ccc(-c2ccccc2)cc1)c1c(C(F)(F)F)nc2ccc(Cl)cn12 [compound 80, N-(Biphenyl-4-ylmethyl)-6-chloro-2-(trifluoromethyl)imidazo[1,2-a]pyridine-3-carboxamide] | < 40% |
| CC(C)(C)c1ccc(CNC(=O)c2c(C(F)(F)F)nc3ccc(Cl)cn23)cc1 [compound 81, N-(4-tert-Butylbenzyl)-6-chloro-2-(trifluoromethyl)imidazo[1,2-a]pyridine-3-carboxamide] | < 40% |
| CCc1nc2cc(Cl)ccn2c1C(=O)NCc1ccc(-c2ccccc2Cl)cc1 [compound 82, 7-Chloro-N-((2′-chlorobiphenyl-4-yl)methyl)-2-ethylimidazo[1,2-a]pyridine-3-carboxamide] | 40 to 69% |
| CCc1nc2cc(Cl)ccn2c1C(=O)NCc1ccc(-c2ccc(Cl)cc2)cc1 [compound 83, 7-Chloro-N-((4′-chlorobiphenyl-4-yl)methyl)-2-ethyl-2-ethlimidazo[1,2-a]pyridine-3-carboxamide] | 40 to 69% |
| CCc1nc2cc(Cl)ccn2c1C(=O)NCc1ccc(Cl)cc1 [compound 84, 7-Chloro-N-(4-chlorobenzyl)-2-ethylimidazo[1,2-a]pyridine-3-carboxamide] | 40 to 69% |
| CCc1nc2cc(Cl)ccn2c1C(=O)NCc1ccc(-c2ccccc2C)cc1 [compound 85, 7-Chloro-2-ethyl-N-((2′-methylbiphenyl-4-yl)methyl)imidazo[1,2-a]pyridine-3-carboxamide] | > 69% |
| CCc1nc2cc(Cl)ccn2c1C(=O)NCc1ccc(-c2cccc(C)c2)cc1 [compound 86, 7-Chloro-2-ethyl-N-((3′-methylbiphenyl-4-yl)methyl)imidazo[1,2-a]pyridine-3-carboxamide] | > 69% |
| CCc1nc2cc(Cl)ccn2c1C(=O)NCc1ccc(-c2ccc(C)cc2)cc1 [compound 87, 7-Chloro-2-ethyl-N-((4′-methylbiphenyl-4-yl)methyl)imidazo[1,2-a]pyridine-3-carboxamide] | 40 to 69% |
| CCc1nc2cc(Cl)ccn2c1C(=O)NCc1ccc(O)cc1 [compound 88, 7-Chloro-2-ethyl-N-(4-hydroxybenzyl)imidazo[1,2-a]pyridine-3-carboxamide] | < 40% |
| CCc1nc2cc(Cl)ccn2c1C(=O)NCc1ccc(N2CCCCC2)cc1 [compound 89, 7-Chloro-2-ethyl-N-(4-(piperidin-1-yl)benzyl)imidazo[1,2-a]pyridine-3-carboxamide] | < 40% |
| CCc1nc2cc(Cl)ccn2c1C(=O)NCc1ccc2ccccc2c1 [compound 90, 7-Chloro-2-ethyl-N-(naphthalen-2-ylmethyl)imidazo[1,2-a]pyridine-3-carboxamide] | 40 to 69% |
| CCc1nc2cc(Cl)ccn2c1C(=O)NCc1ccc(-c2ccccc2)cc1 [compound 91, N-(Biphenyl-4-ylmethyl)-7-chloro-2-ethylimidazo[1,2-a]pyridine-3-carboxamide] | 40 to 69% |
| CCc1nc2cc(Cl)ccn2c1C(=O)NCc1ccc(C(C)(C)C)cc1 [compound 92, N-(4-tert-Butylbenzyl)-7-chloro-2-ethylimidazo[1,2-a]pyridine-3-carboxamide] | 40 to 69% |
| CCc1nc2cc(Cl)ccn2c1C(=O)NCc1ccc(Br)cc1 [compound 96, N-(4-Bromobenzyl)-7-chloro-2-ethylimidazo[1,2-a]pyridine-3-carboxamide] | 40 to 69% |
| CCc1nc2ccc(Cl)cn2c1C(=O)NCc1ccc(-c2ccc(C#N)cc2)cc1 [compound 97, 6-Chloro-N-((4′-cyanobiphenyl-4-yl)methyl)-2-ethylimidazo[1,2-a]pyridine-3-carboxamide] | < 40% |
| CCc1nc2ccc(Cl)cn2c1C(=O)NCc1ccc(-c2ccccc2C(F)(F)F)cc1 [compound 98, 6-Chloro-2-ethyl-N-((2′-(trifluoromethyl)biphenyl-4-yl)methyl)imidazo[1,2-a]pyridine-3-carboxamide] | 40 to 69% |
| CCc1nc2ccc(Cl)cn2c1C(=O)NCc1ccc(-c2cccc(C#N)c2)cc1 [compound 99, 6-Chloro-N-((3′-cyanobiphenyl-4-yl)methyl)-2-ethylimidazo[1,2-a]pyridine-3-carboxamide] | < 40% |
| CCc1nc2ccc(Cl)cn2c1C(=O)NCc1ccc(-c2ccc(Cl)cc2C(F)(F)F)cc1 [compound 100, 6-Chloro-N-((4′-chloro-2′-(trifluoromethyl)biphenyl-4-yl)methyl)-2-ethylimidazo[1,2-a]pyridine-3-carboxamide] | > 69% |
| CCc1nc2cc(Cl)ccn2c1C(=O)NCc1ccc(-c2cccc(C#N)c2)cc1 [compound 101, 7-Chloro-N-((3′-cyanobiphenyl-4-yl)methyl)-2-ethylimidazo[1,2-a]pyridine-3-carboxamide] | 40 to 69% |
| CCc1nc2cc(Cl)ccn2c1C(=O)NCc1ccc(-c2ccccc2C(F)(F)F)cc1 [compound 102, 7-Chloro-2-ethyl-N-((2′-(trifluoromethyl)biphenyl-4-yl)methyl)imidazo[1,2-a]pyridine-3-carboxamide] | 40 to 69% |
| CCc1nc2cc(Cl)ccn2c1C(=O)NCc1ccc(-c2ccc(Cl)cc2C(F)(F)F)cc1 [compound 103, 7-Chloro-N-((4′-chloro-2′-(trifluoromethyl)biphenyl-4-yl)methyl)-2-ethylimidazo[1,2-a]pyridine-3-carboxamide] | > 69% |

Same assay, conditions: 6 or 11 point dose response in duplicate

| Structure (SMILES) | IC50 |
| --- | --- |
| CCc1nc2ccc(Cl)cn2c1C(=O)NCc1ccc(-c2ccccc2C)cc1 [compound 75, 6-Chloro-2-ethyl-N-((2′-methylbiphenyl-4-yl)methyl)imidazo[1,2-a]pyridine-3-carboxamide] | 1 to 20 µM |
| CCc1nc2cc(Cl)ccn2c1C(=O)NCc1ccc(-c2cccc(C)c2)cc1 [compound 86, 7-Chloro-2-ethyl-N-((3′-methylbiphenyl-4-yl)methyl)imidazo[1,2-a]pyridine-3-carboxamide] | 1 to 20 µM |
| CCc1nc2ccc(Cl)cn2c1C(=O)NCc1ccc(-c2ccc(Cl)cc2C(F)(F)F)cc1 [compound 100, 6-Chloro-N-((4′-chloro-2′-(trifluoromethyl)biphenyl-4-yl)methyl)-2-ethylimidazo[1,2-a]pyridine-3-carboxamide] | 1 to 20 µM |
| CCc1nc2cc(Cl)ccn2c1C(=O)NCc1ccc(-c2ccc(Cl)cc2C(F)(F)F)cc1 [compound 103, 7-Chloro-N-((4′-chloro-2′-(trifluoromethyl)biphenyl-4-yl)methyl)-2-ethylimidazo[1,2-a]pyridine-3-carboxamide] | 1 to 20 µM |
